Laboratory results as given in patent US9452185B2, “Mesenchymal stem cells and supports for tissue regeneration, repair and reconstruction” (THE TEXAS A&M UNIVERSITY SYSTEM, priority 2009, dated 2016).

Experiments:
hMSCs = assay: Membrane integrin expression by flow cytometric analysis; format: cell-based, human; parameters: CD49a x-mean / CD49b x-mean / CD49c x-mean / CD49e x-mean / CD51 x-mean / CD29 x-mean / CD36 x-mean / CD44 x-mean: unit not given here
Procedure: For immunophenotyping, MSCs were recovered by brief trypsinization and incubated with one or more fluorophore-tagged antibodies or respective isotype controls for 30 min in a phosphate-buffered saline (PBS) containing 2% (v/v) FBS. After about three washes, a minimum of 20,000 cells were analyzed on a flow cytometer and data processed using machine-compatible software. Antibodies against the following cell surface antigens were used, including CD11b (clone BEAR1), CD14 (RM052), CD19 (J3-119), CD29 (MAR4), CD34 (581), CD36 (FA6.152), CD44 ([…]-26), CD45 (J.33), CD49a (SR84), CD49b (Gi9), CD49c (C3 II.1), CD49e (IIA1), CD51 (23C6), CD73 (AD2), CD79a (HM47), CD90 (Thy-1/310), CD105 (IG2), CD146 (TEA1/34), CD166 (3[…] (Tu39).

calvarial defects = assay: Histology of 50-day calvaria (H&E, tetracycline tracing, blood vessels); format: in vivo, nude mice
Procedure: Histochemistry and immunocytochemistry. For β-catenin localization studies, hMSCs were stained with a cy-3 conjugated anti-β-catenin antibody and nuclei were counterstained with pico-green dye. Specimens were processed as paraffin blocks and 8 longitudinal sections were prepared, deparaffinized and rehydrated, then stained with hematoxylin and eosin. For immunocytochemistry, sections were probed with an anti-human β-2-microglobulin antibody. An upright fluorescent microscope fitted with a high performance camera (and image analysis software was employed for imaging. Tetracycline tracing of in vivo calcium deposition. The tetracycline was imaged using an upright fluorescent microscope fitted with a high performance camera and analyzed using software. Embedding, sectioning and mounting was carried out on non-decalcified material. Semi-quantitative blood vessel measurements. Calvaria were fixed, decalcified and sectioned in paraffin and stained with hematoxylin and eosin as described. Using NIS-Elements image analysis software, the surface area of blood vessels in a defined ROI was calculated and totaled. The values were expressed as the mean of total blood vessel area from 3 animals per group. […] Using NIS-Elements image analysis software, the surface area of blood vessels in the 2D ROI was calculated for each section and totaled. […]

With `O=C(Nc1ccccc1)c1cc([N+](=O)[O-])ccc1Cl` [GW9662, 2-chloro-5-nitro-N-phenyl-benzamide] the CD29 % pos (hMSCs; GW-treatment) was 99.97%, the CD29 x-mean (hMSCs; GW-treatment) was 135 and the CD36 % pos (hMSCs; GW-treatment) was 0.68%. It also gave a CD36 x-mean (hMSCs; GW-treatment) of 1.89, a CD44 % pos (hMSCs; GW-treatment) of 96.24% and a CD44 x-mean (hMSCs; GW-treatment) of 7.84. The CD49a % pos (hMSCs; GW-treatment) was 87.07%, the CD49a x-mean (hMSCs; GW-treatment) was 3.28 and the CD49b % pos (hMSCs; GW-treatment) was 43.09%. The CD49b x-mean (hMSCs; GW-treatment) was 5.69, the CD49c % pos (hMSCs; GW-treatment) was 99.93% and the CD49c x-mean (hMSCs; GW-treatment) was 21.80. The CD49e % pos (hMSCs; GW-treatment) was 99.99%, the CD49e x-mean (hMSCs; GW-treatment) was 81.50 and the CD51 % pos (hMSCs; GW-treatment) was 99.92%. The CD51 x-mean (hMSCs; GW-treatment) was 15.30, the “CD36 on the surface of hMSCs” value (hMSCs; irrespective of GW9662 treatment) was “No substantial expression” and the “new bone formation, histology” value (calvarial defects; day 50) was “new bone formation was detected”. For the same compound, the “ability of MSCs to initiate angiogenesis at trauma sites” value (calvarial defects; day 50, blood vessels) was “had not affected”.
